Test [1] concerns FOP herbicide resistant calli (FP-1 to FP-19). In words: Resistant calli tested on higher herbicide concentrations in culture medium. In kind it is cell-based, Sorghum bicolor. The method, then: The herbicide active ingredient molecule of ACC herbicide Assure II (Quizalofop-p-ethyl) was used for screening and selection process. For identifying the optimum concentration for screening, a kill curve experiment with concentrations ranging from 0.05 to 1.0 μM of a.i. molecules were tested. Three week old calli were cut into small pieces of 4-5 mm dia and 25 pieces were tested in three replications for each concentration. Concentrations used were: 0.05, 0.1, 0.2, 0.3, 0.4, 0.5 and 1 μM Quizalofop p-ethyl. As 50% of calli were killed at 0.2 uM concentration, the following selection criteria was followed for entire screening process. Selection process was started with 0.05 um and doubled the concentration for every 3 weeks and the calli surviving on 1.0 uM was considered as resistant calli.
For the chemical mutagenesis, two chemical mutagens Ethyl methanesulfonate (EMS) (0.25 and 0.5%) and Sodium azide (0.5 and 1.0 uM) were used. These mutagens at specified concentration were directly added into the culture media. The calli pieces were first cultured on the media containing the mutagens for 6 and 12 hrs and then transferred to the above mentioned selection procedure. A total of 16 experiments were conducted with varying amount of calli pieces. After 21 to 24 weeks of selection, the surviving calli were considered as herbicide resistant calli. […]

Test [2] deals with sorghum (Inbred BTX430) calli. Description: Kill curve experiment on sorghum calli. In kind it is cell-based, Sorghum bicolor. The note with it: 0.2 uM concentration; three week old BTX430 calli. The method, then:
Callus production from the isolation of immature embryos (IEs) was accomplished by removing immature seeds from greenhouse grown sorghum (Inbred BTX430) panicles approximately 14 days after anthesis and surface sterilized in ethanol followed by a bleach solution and then washed in sterilized water. Immature embryos were isolated from seeds and transferred to medium with 20 IEs per plate. Cultures were grown for two weeks at (28° C.). All explants which produced somatic embryogenic calli were transferred to growth medium and cultured for an additional 4-6 days at 28° C. Explants were transferred to fresh media every three weeks until the entire callus turned into compact and friable green callus. Three weeks old freshly subcultured calli were used for the experiment
The herbicide active ingredient molecule of ACC herbicide Assure II (Quizalofop-p-ethyl) was used for screening and selection process. For identifying the optimum concentration for screening, a kill curve experiment with concentrations ranging from 0.05 to 1.0 μM of a.i. molecules were tested. Three week old calli were cut into small pieces of 4-5 mm dia and 25 pieces were tested in three replications for each concentration. Concentrations used were: 0.05, 0.1, 0.2, 0.3, 0.4, 0.5 and 1 μM Quizalofop p-ethyl. […]

In the case of `CCOC(=O)[C@@H](C)Oc1ccc(Oc2cnc3cc(Cl)ccc3n2)cc1` [Quizalofop-p-ethyl], the “survival of FOP resistant calli” value in test [1] (100 μM, FP-7, FP-8, FP-9, FP-10, FP-13, FP-15) is given as “surviving”. The “growth of FOP herbicide resistant calli on tissue culture medium” value in test [1] (FP-13, 1, 1.5, 2, 5, 10 μM) is recorded as “growing”. The calli killed in test [2] is on record as 50%.
